Experimental data published in patent US6432924B1, “Method of treating disorders characterized by overexpression of cytidine deaminase or deoxycytidine deaminase” (East Carolina University, priority 1993, dated 2002).

Columns and labels:
HT-29SF cells [1] = test: HT-29SF subcutaneous xenograft, tumor volume on Day 29; assay type: in vivo, BALB/c nude mice
Procedure: In another experiment, thirty BALB/c nude mice received subcutaneous injections of 5×10^6 HT-29SF cells. Twelve of the animals received 600 mg/kg/day 5mAZC in the flank for 28 days. Eighteen animals received saline injections on the same schedule. On Day 29, the animals were sacrificed and the tumor volume was quantified by standard methods. The average tumor volume for the control group receiving saline was 509±292 mm . […] The results of Examples 2 and 3 show clearly that 5mAZC is activated in vitro and in vivo into molecular species exclusively toxic to tumor cells that overexpress cytidine deaminase.

[2] = system: HT-29SF^CD (cytidine deaminase producing)cells; test: Human tumor xenograft model, HT-29SF^CD tumor (right scapular region); assay type: in vivo, Balb/C nu/nu mice; conditions: 150 mg/kg twice daily intraperitoneal, 5 weeks, N=2
Procedure: (§1) One of these mice received twice daily intraperitoneal doses of 150 mg/kg of 5mAZC. The other mouse received saline only. This treatment continued for 5 weeks, at which time the animals were euthanized and the solid tumors were dissected free and weighed.

[3] = system: HT-29SF (non cytidine deaminase producing)cells; test: Human tumor xenograft model, HT-29SF tumor (left scapular region); assay type: in vivo, Balb/C nu/nu mice; conditions: 150 mg/kg twice daily intraperitoneal, 5 weeks, N=2
Procedure: as §1

HT-29SF^CD cells = test: Transwell culture, 5mAZC exposure of cytidine deaminase overexpressing cells; assay type: cell-based, human; conditions: for Number of viable cells HT-29SF^CD: quintuplicate, Transwell
Procedure: (§2) HT-29SF^CD cells are a subline of HT-29SF human colonic adenocarcinoma cells that were selected for overexpression of cytidine deaminase. HT-29SF cells were plated in the bottom compartment, and HT-29SF^CD cells in the top compartment of a “Transwell” culture dish (1,000 cells each). A semipermeable membrane separates the two compartments of the Transwell, such that any drug administered in the tissue culture media bathe both compartments equally. 5-mAZC was administered continuously for 72 hrs. at the indicated concentrations. The numbers in the x-axis indicate the concentration (in μM) at which 5mAZC was administered continuously for 72 hours. The numbers on the y-axis indicate the number of surviving cells. The circular (●) data points represent the dose response for the HT-29SF^CD cells. The square (▪) data points represent the dose response for the HT-29SF cells.
HT-29SF human adenocarcinoma cells naturally express a high level of cytidine deaminase (CD). HT-29SF^CD is a subline of the HT-29SF line that express even higher CD levels than normal (about 5.4 times the expression level of HT-29SF cells). In order to see whether cells that overexpress cytidine deaminase are more sensitive to 5mAZC than other cells, HT-29SF^CD cells were plated in the top compartment of a Transwell culture dish, while HT-29SF cells were placed in the bottom compartment (1000 cells each). A semipermeable membrane separated the two compartments of the Transwell, such that drugs administered in the tissue culture media bathe both compartments equally. 5mAZC was administered continuously for 72 hrs at concentrations ranging from 0 μM to 50 μM. The results of this experiment confirm the idea that cells that highly overexpress CD are sensitive to 5mAZC.
Based upon the results obtained in example 1 above, a dose of 50 μM 5mAZC was selected for more in-depth analysis. Two experiments were performed, in quintuplicate, in the same Transwell dishes, containing the HT-29SF cells and the HT-29SF^CD cells in compartments separated only by a membrane permeable to 5mAZC.

HT-29SF cells [4] = test: Transwell culture, 5mAZC exposure of parent cells; assay type: cell-based, human; conditions: quintuplicate
Procedure: as §2
HT-29SF human adenocarcinoma cells naturally express a high level of cytidine deaminase (CD). HT-29SF^CD is a subline of the HT-29SF line that express even higher CD levels than normal (about 5.4 times the expression level of HT-29SF cells). In order to see whether cells that overexpress cytidine deaminase are more sensitive to 5mAZC than other cells, HT-29SF^CD cells were plated in the top compartment of a Transwell culture dish, while HT-29SF cells were placed in the bottom compartment (1000 cells each). […]

[5] = Experiment 1, 50 μM 5mAZC, 1000 cells plated

With `Cc1cn([C@H]2C[C@H](N=[N+]=[N-])[C@@H](CO)O2)c(=O)nc1N` [5mAZC, 5-methyl-2′,3′-dideoxy-3′-azidocytidine] the “average reduction in size (tumor volume vs saline control)” value (HT-29SF cells [1]; 600 mg/kg/day for 28 days) was 46%, the average tumor volume (HT-29SF cells [1]; 600 mg/kg/day in the flank for 28 days, saline control 509±292) was 273±97 mm^3 and the “tumor weight HT-29SF^CD+5mAZC” value [2] was 0.22 g. For the same compound, the “tumor weight HT-29SF+5mAZC” value [3] was 1.02 ± 0.13 g, the “Number of viable cells HT-29SF^CD” value (HT-29SF^CD cells; [5]) was 33.8 ± 17.1 and the “sensitivity of cells that highly overexpress CD to 5mAZC (number of surviving cells, FIG. 1)” value (HT-29SF^CD cells; HT-29SF^CD cells, 0 μM to 50 μM continuously for 72 hrs) was “sensitive”. For the same compound, the “Number of viable cells HT-29SF^CD” value (HT-29SF^CD cells; second experiment (head prints Example 2), 50 μM 5mAZC) was 45.4 ± 15.6, the “Number of viable cells HT-29SF” value (HT-29SF cells [4]; [5]) was 797 ± 68 and the “Number of viable cells HT-29SF” value (HT-29SF cells [4]; second experiment, 50 μM 5mAZC) was 867.2 ± 29.4.
